Where “and” joins values, the source holds several entries; their conditions need not be identical. Identical values can stand only once.
Experiments:
[1] = tested on: peak Na+ current (INaP) estimated as V+max; assay: Onset kinetics of V+max block during 2.5 Hz train after 1 min rest; type: cell-based, canine; conditions: initial 40 APs, 1 µM GS967, 20 µM mexiletine, 10 µM quinidine
Protocol: (§1) Right ventricular papillary muscles were applied for AP recordings using the conventional sharp microelectrode technique, as described previously. Membrane potential changes were recorded at 37 °C using sharp microelectrodes filled with 3 M KCl (tip resistance 10–20 MΩ) and connected to the input of an amplifier (MDE GmbH, Heidelberg, Germany). The preparations were stimulated with current pulses having durations of 1 ms and amplitudes of 200% diastolic threshold using a pair of platinum electrodes. Before starting the experiment, the preparations were paced at a cycle length of 1 s for at least 60 min allowing equilibration. After this period, the cycle length was sequentially changed between 0.3 and 5 s and the 25th AP was recorded at each cycle length. […] APs were sampled at 100 kHz with an ADA 3300 data acquisition board (Real Time Devices Inc., State Collage, PA, USA) and stored for later analysis.
The onset kinetics of drug action on V^+max were determined by stimulating the preparation at a short cycle length of 0.4 s following a 1 min period of rest and the initial 40 APs were recorded. The V^+max values of the consecutive APs were plotted as a function of the number of the AP within the train. The onset rate constant was determined by fitting the consecutive V^+max values to a monoexponential function.

late Na+ current (INaL) [2] = assay: INaL dissected by drug under action potential voltage clamp (APVC) in isolated ventricular myocytes; type: cell-based, canine; conditions: cycle length 700 ms, 37 °C, 1 µM GS967, 20 µM mexiletine, 10 µM quinidine, mean ± SEM
Protocol: (§2) Single canine ventricular myocytes were isolated using a segment perfusion technique, as previously described. Briefly, the LAD coronary artery was cannulated and used for supplying solutions required for the dissociation of the individual cells with minimal injury. After dissection, the tissue was first perfused with a nominally Ca^2+-free solution (Minimum Essential Medium Eagle, Joklik Modification, Sigma-Aldrich Co., St. Louis, MO, USA) for 5 min in order to reduce the Ca^2+ load and also to promote the uncoupling of cell-to-cell junctions. Following this, the perfusate was supplemented with 1 mg/mL collagenase (Type II, final activity of 224 U/mL, Worthington Biochemical Co., Lakewood, NJ, USA) and 0.2% bovine serum albumin (Fraction V., Sigma) in the presence of 50 µM Ca^2+. This step was applied for 30 min to digest the collagen fibers in the extracellular matrix, resulting in the release of individual cells. […] The cells were kept at 15 °C before use, allowing normalization of their intracellular ionic composition. All chemicals applied in these experiments were purchased from Sigma-Aldrich Co. (St. Louis, MO, USA).
(§3) The cells, studied by an inverted microscope, were continuously superfused with a modified Tyrode at a rate of 1–2 mL/min. The modified Tyrode solution contained (in mM): NaCl: 121; KCl: 4; CaCl2: 1.3; MgCl2: 1; HEPES: 10; NaHCO3: 25; glucose: 10; pH: 7.35; osmolarity: 300 ± 3 mOsm. The temperature of this perfusate was set to 37 °C with a temperature controller (Cell MicroControls, Norfolk, VA, USA). Electrical signals were generated, amplified and recorded using a MultiClamp 700A or 700B amplifier under the control of pClamp 10 software (Molecular Devices, Sunnyvale, CA, USA) after analogue-to-digital conversion (Digidata 1440A or 1332, Molecular Devices). The electrodes were manufactured from borosilicate glass. The tip resistance of these micropipettes ranged between 2 and 3 MΩ when filled with pipette solution. Ion currents were recorded under whole-cell voltage clamp conditions. The series resistance was typically 4–8 MΩ. The measurement was discarded when the series resistance changed substantially during the experimental period.
APVC experiments were performed according to the methods described previously. This technique allows for the visualization of various ion currents flowing during an actual ventricular AP by using a selective inhibitor of the respective ion current. In these experiments, therefore, a midmyocardial canine ventricular AP was applied as a command signal. The current traces were continuously recorded before and after a 5 min superfusion with the applied Na^+ channel inhibitor. The drug-sensitive current was obtained by subtracting the post-drug trace from the reference pre-drug trace. When measuring INaL, the external solution was supplemented with 1 µM nisoldipine, 1 µM E4031 and 100 µM chromanol 293B, in order to eliminate contaminations by Ca^2+ and K^+ currents. The pipette solution contained (in mM): K-aspartate, 120; KCl, 30; MgATP, 3; HEPES, 10; Na2-phosphocreatine, 3; EGTA, 0.01; cAMP, 0.002; KOH, 10; at pH = 7.3; osmolarity of 285 mOsm. The amplitude of INaL was measured at 50% duration of the APD90 value of the command AP. The initial 20 ms period following the AP upstroke was excluded from evaluation when determining the current integral in order to eliminate the contribution of INaP. A total of 20 consecutive current traces were averaged and analyzed in each experiment to reduce the noise and the trace-to-trace fluctuations of the AP configuration. Ion currents were normalized to cell capacitance, determined by applying a short (15 ms) hyperpolarizing pulse from +10 mV to −10 mV.

late Na+ current (INaL) [3] = assay: INaL under conventional voltage clamp (2 s pulses to −20 mV from −120 mV) in isolated ventricular myocytes; type: cell-based, canine; conditions: for inhibition of INaL current integral: 1 µM GS967, 20 µM mexiletine, 10 µM quinidine; for inhibition of INaL density: at 50 ms, 1 µM GS967 (n = 6), 20 µM mexiletine (n = 5), 10 µM quinidine (n = 6); for INaL current integral (charge carried), post-drug: initial 20 ms excluded, 1 µM GS967 (pre-drug −69.1 ± 7.9), 20 µM mexiletine (pre-drug −68.6 ± 6.2), 10 µM quinidine (pre-drug −68.2 ± 11.7); for INaL density at 50 ms after start of pulse, post-drug: −20 mV from −120 mV, 1 µM GS967 (pre-drug −0.313 ± 0.035), 20 µM mexiletine (pre-drug −0.337 ± 0.035), 10 µM quinidine (pre-drug −0.333 ± 0.043)
Protocol: as §2, §3
Rectangular command pulses were applied in conventional voltage clamp experiments to study the effects on INaL at stable test potentials, as described previously. The cells were perfused with HEPES-buffered Tyrode solution containing (in mM): NaCl, 144; NaH2PO4, 0.4; KCl, 4.0; CaCl2, 1.8; MgSO4, 0.53; glucose, 5.5; HEPES, 5.0; at pH = 7.4. This solution contained 1 µM nisoldipine, 0.5 µM HMR-1556 and 0.1 µM dofetilide in order to block the Ca^2+ and K^+ currents. The pipette solution contained (in mM): CsCl, 125; TEACl, 20; MgATP, 5; EGTA, 10; HEPES, 10; at pH = 7.2. Test pulses of 2 s duration were clamped to −20 mV from the holding potential of −120 mV. The total amount of INaL was determined by pharmacological subtraction using a final superfusion with 20 µM TTX. The amplitude of INaL was determined at 50 ms following the start of the pulse. When measuring the charge carried by INaL (integral), the initial 20 ms of the current was excluded from evaluation to minimize the contamination with INaP.

[4] = tested on: peak Na+ current (INaP) estimated as V+max; assay: Steady-state V+max of action potential upstroke (indicator of INaP), right ventricular papillary muscle, sharp microelectrode; type: cell-based, canine; conditions: 1 µM GS967, 20 µM mexiletine, 10 µM quinidine; for V+max block: cycle length 700 ms; for cycle lengths at which V+max was significantly reduced: cycle lengths 0.3-5 s tested
Protocol: as §1

[5] = tested on: peak Na+ current (INaP) estimated as V+max; assay: Offset kinetics: restitution of V+max with extra stimuli after 1 Hz trains; type: cell-based, canine; conditions: monoexponential fit, basic cycle length 1 s; 1 µM GS967, 20 µM mexiletine
Protocol: as §1

Nav1.5 = tested on: Nav1.5; set-up: method as in PMID 27136942, PMID 32938719; conditions: cited from earlier work
Nav1.1 = tested on: Nav1.1; set-up: method as in PMID 31730442; conditions: cited from earlier work
Nav1.8 = conditions: stated in discussion, no reference given; cited from earlier work
Nav2.1 = conditions: stated in discussion, no reference given; cited from earlier work
INaL over INaP = conditions: cited from earlier work

| SMILES | onset rate constant of V+max block [1] | drug-sensitive INaL current density measured at 50% duration of APD90 of the command AP (late Na+ current (INaL) [2]) | drug-sensitive INaL current integral (initial 20 ms excluded) (late Na+ current (INaL) [2]) | inhibition of INaL current integral (late Na+ current (INaL) [3]) | inhibition of INaL density (late Na+ current (INaL) [3]) | INaL current integral (charge carried), post-drug (late Na+ current (INaL) [3]) | INaL density at 50 ms after start of pulse, post-drug (late Na+ current (INaL) [3]) | V+max block [4] | cycle lengths at which V+max was significantly reduced [4] | offset time constant (recovery of V+max) [5] | block of cardiac Nav1.5 channel isoform (Nav1.5) | sensitivity of neuronal Nav1.1 (Nav1.1) | inhibition of Nav1.8 (Nav1.8) | inhibition of Nav2.1 (Nav2.1) | selectivity for INaL over INaP (INaL over INaP) |
| --- | --- | --- | --- | --- | --- | --- | --- | --- | --- | --- | --- | --- | --- | --- | --- |
| Cc1cccc(C)c1OCC(C)N (stereo not drawn) [mexiletine] | 3.4 ± 0.4 AP | −0.375 ± 0.07 A/F | −65.2 ± 11.5 mC/F | 46.1% | 41.9 ± 3.7% | −37.0 ± 4.7 mC/F | −0.197 ± 0.026 A/F | 11.4% | < 700 ms | 456 ± 284 ms | – | – | – | – | – |
| C=C[C@H]1C[N@@]2CC[C@H]1C[C@@H]2[C@@H](O)c1ccnc2ccc(OC)cc12 [quinidine] | – | −0.377 ± 0.06 A/F | −61.2 ± 8.8 mC/F | 37.1% | 43.3 ± 2.2% | −42.9 ± 9.2 mC/F | −0.186 ± 0.02 A/F | – | – | – | – | – | – | – | – |
| FC(F)(F)Oc1ccc(-c2ccc3nnc(C(F)(F)F)n3c2)cc1 [GS967] | 6.4 ± 0.9 AP and 5.3±0.8 AP | −0.37 ± 0.07 A/F | −56.7 ± 9.1 mC/F | 79.0% | 80.4 ± 2.2% | −15.4 ± 3.9 mC/F | −0.062 ± 0.01 A/F | 2.3% | < 500 ms | 110 ± 6 ms | strongly block | sensitive | does not inhibit | does not inhibit | – |
| O=C(NCC1CCCCN1)c1cc(OCC(F)(F)F)ccc1OCC(F)(F)F (stereo not drawn) [flecainide] | – | – | – | – | – | – | – | – | – | – | – | – | – | – | 3 fold |
| COc1ccccc1OCC(O)CN1CCN(CC(=O)Nc2c(C)cccc2C)CC1 (stereo not drawn) [ranolazine] | – | – | – | – | – | – | – | – | – | – | – | – | – | – | 38 fold |
| CCCCc1oc2ccccc2c1C(=O)c1cc(I)c(OCCN(CC)CC)c(I)c1 [amiodarone] | – | – | – | – | – | – | – | – | – | – | – | – | – | – | 13 fold |

Reference: article PMC10525890, “Selective Inhibition of Cardiac Late Na^+ Current Is Based on Fast Offset Kinetics of the Inhibitor” (Biomedicines, 2023)
